{"source": "BigSolDB 2.1", "data": [{"molecule": "NC(=O)c1ncn([C@@H]2O[C@H](CO)[C@@H](O)[C@H]2O)n1", "values": [{"measurement": "solubility (mole fraction)", "setting": "in 1,4-dioxane, 283.15 K", "value": "7.06e-05"}, {"measurement": "solubility (mole fraction)", "setting": "in 1,4-dioxane, 288.15 K", "value": 0.000101}, {"measurement": "solubility (mole fraction)", "setting": "in 1,4-dioxane, 293.15 K", "value": 0.000145}, {"measurement": "solubility (mole fraction)", "setting": "in 1,4-dioxane, 298.15 K", "value": 0.000203}, {"measurement": "solubility (mole fraction)", "setting": "in 1,4-dioxane, 303.15 K", "value": 0.000282}, {"measurement": "solubility (mole fraction)", "setting": "in 1,4-dioxane, 308.15 K", "value": 0.000387}, {"measurement": "solubility (mole fraction)", "setting": "in 1,4-dioxane, 313.15 K", "value": 0.000527}, {"measurement": "solubility (mole fraction)", "setting": "in 1,4-dioxane, 318.15 K", "value": 0.000712}, {"measurement": "solubility (mole fraction)", "setting": "in acetonitrile, 278.15 K", "value": "8.6e-06"}, {"measurement": "solubility (mole fraction)", "setting": "in acetonitrile, 283.15 K", "value": "1.33e-05"}, {"measurement": "solubility (mole fraction)", "setting": "in acetonitrile, 288.15 K", "value": "1.94e-05"}, {"measurement": "solubility (mole fraction)", "setting": "in acetonitrile, 293.15 K", "value": "2.77e-05"}, {"measurement": "solubility (mole fraction)", "setting": "in acetonitrile, 298.15 K", "value": "3.96e-05"}, {"measurement": "solubility (mole fraction)", "setting": "in acetonitrile, 303.15 K", "value": "5.64e-05"}, {"measurement": "solubility (mole fraction)", "setting": "in acetonitrile, 308.15 K", "value": "7.88e-05"}, {"measurement": "solubility (mole fraction)", "setting": "in acetonitrile, 313.15 K", "value": 0.00011}, {"measurement": "solubility (mole fraction)", "setting": "in acetonitrile, 318.15 K", "value": 0.00015}, {"measurement": "solubility (mole fraction)", "setting": "in methanol, 278.15 K", "value": 0.000379}, {"measurement": "solubility (mole fraction)", "setting": "in methanol, 283.15 K", "value": 0.000517}, {"measurement": "solubility (mole fraction)", "setting": "in methanol, 288.15 K", "value": 0.000711}, {"measurement": "solubility (mole fraction)", "setting": "in methanol, 293.15 K", "value": 0.000952}, {"measurement": "solubility (mole fraction)", "setting": "in methanol, 298.15 K", "value": 0.00128}, {"measurement": "solubility (mole fraction)", "setting": "in methanol, 303.15 K", "value": 0.00171}, {"measurement": "solubility (mole fraction)", "setting": "in methanol, 308.15 K", "value": 0.00223}, {"measurement": "solubility (mole fraction)", "setting": "in methanol, 313.15 K", "value": 0.00293}, {"measurement": "solubility (mole fraction)", "setting": "in methanol, 318.15 K", "value": 0.00379}, {"measurement": "solubility (mole fraction)", "setting": "in n-propanol, 278.15 K", "value": "5.99e-05"}, {"measurement": "solubility (mole fraction)", "setting": "in n-propanol, 283.15 K", "value": "8.69e-05"}, {"measurement": "solubility (mole fraction)", "setting": "in n-propanol, 288.15 K", "value": 0.000122}, {"measurement": "solubility (mole fraction)", "setting": "in n-propanol, 293.15 K", "value": 0.000171}, {"measurement": "solubility (mole fraction)", "setting": "in n-propanol, 298.15 K", "value": 0.000242}, {"measurement": "solubility (mole fraction)", "setting": "in n-propanol, 303.15 K", "value": 0.000332}, {"measurement": "solubility (mole fraction)", "setting": "in n-propanol, 308.15 K", "value": 0.000455}, {"measurement": "solubility (mole fraction)", "setting": "in n-propanol, 313.15 K", "value": 0.000617}, {"measurement": "solubility (mole fraction)", "setting": "in n-propanol, 318.15 K", "value": 0.000829}, {"measurement": "solubility (mole fraction)", "setting": "in water, 278.15 K", "value": 0.0058}, {"measurement": "solubility (mole fraction)", "setting": "in water, 283.15 K", "value": 0.00775}, {"measurement": "solubility (mole fraction)", "setting": "in water, 288.15 K", "value": 0.0104}, {"measurement": "solubility (mole fraction)", "setting": "in water, 293.15 K", "value": 0.0135}, {"measurement": "solubility (mole fraction)", "setting": "in water, 298.15 K", "value": 0.0174}, {"measurement": "solubility (mole fraction)", "setting": "in water, 303.15 K", "value": 0.0219}, {"measurement": "solubility (mole fraction)", "setting": "in water, 308.15 K", "value": 0.0273}, {"measurement": "solubility (mole fraction)", "setting": "in water, 313.15 K", "value": 0.0335}, {"measurement": "solubility (mole fraction)", "setting": "in water, 318.15 K", "value": 0.0405}]}]}
